In ChEMBL document CHEMBL4602605, “Fluoroquinolones structural and medicinal developments (2013-2018): Where are we now?” (Bioorg Med Chem, 2019):
≈ marks a conversion by molar mass, not a printed value.

Key:
Staphylococcus aureus [1] = experiment: Antimicrobial activity against Staphylococcus aureus ATCC 29213 incubated for 24 hrs by CLSI-based dilution method; assay type: functional; conditions: ATCC 29213, 24 h
Staphylococcus aureus [2] = experiment: Antimicrobial activity against gentamicin-resistant Staphylococcus aureus ATCC 33592 incubated for 24 hrs by CLSI-based broth microdilution method; assay type: functional; conditions: ATCC 33592, 24 h
Klebsiella pneumoniae [3] = experiment: Antimicrobial activity against Klebsiella pneumoniae ATCC 27736 incubated for 24 hrs by CLSI-based broth microdilution method; assay type: functional; conditions: ATCC 27736, 24 h
Staphylococcus aureus [4] = experiment: Antimicrobial activity against Staphylococcus aureus ATCC 25923 incubated for 24 hrs by CLSI-based dilution method; assay type: functional; conditions: ATCC 25923, 24 h
Pseudomonas aeruginosa [5] = experiment: Antimicrobial activity against Pseudomonas aeruginosa ATCC BAA-427 incubated for 24 hrs by CLSI-based broth microdilution method; assay type: functional; conditions: ATCC BAA-427, 24 h
Escherichia coli [6] = experiment: Antimicrobial activity against Escherichia coli ATCC 9637 incubated for 24 hrs by CLSI-based broth microdilution method; assay type: functional; conditions: W ATCC 9637, 24 h
Staphylococcus aureus [7] = experiment: Antimicrobial activity against methicillin-resistant Staphylococcus aureus ATCC 700699 incubated for 24 hrs by CLSI-based broth microdilution method; assay type: functional; conditions: ATCC 700699, 24 h
Aspergillus clavatus = experiment: Antifungal activity against Aspergillus clavatus after overnight incubation by agar well diffusion method; assay type: functional
[8] = test system: Mycolicibacterium smegmatis; experiment: Antimicrobial activity against Mycobacterium smegmatis incubated for 30 to 32 hrs by spectrophotometry based assay; assay type: functional
Candida albicans = experiment: Antifungal activity against Candida albicans after overnight incubation by agar well diffusion method; assay type: functional
PC-3 = experiment: Growth inhibition of human PC3 cells by MTT assay; assay type: functional, cell-based
Staphylococcus aureus [9] = experiment: Antimicrobial activity against methicillin-resistant Staphylococcus aureus ATCC 33591 incubated for 24 hrs by serial dilution method; assay type: functional; conditions: ATCC 33591, 24 h
Staphylococcus aureus [10] = experiment: Antimicrobial activity against methicillin-susceptible Staphylococcus aureus ATCC 29213 incubated for 24 hrs by serial dilution method; assay type: functional; conditions: ATCC 29213, 24 h
Escherichia coli [11] = experiment: Antimicrobial activity against Escherichia coli ATCC 35218 incubated for 24 hrs by serial dilution method; assay type: functional; conditions: ATCC 35218, 24 h
A549 = experiment: Growth inhibition of human A549 cells at 10 uM incubated for 48 hrs by MTT assay relative to control; assay type: functional; conditions: A549, 48 h, read-out: GI
Moraxella catarrhalis = experiment: Antimicrobial activity against Moraxella catarrhalis ATCC 25238 incubated for 24 hrs by serial dilution method; assay type: functional; conditions: ATCC 25238, 24 h
Enterococcus faecalis [12] = experiment: Antimicrobial activity against Enterococcus faecalis ATCC 29212 incubated for 24 hrs by serial dilution method; assay type: functional; conditions: ATCC 29212, 24 h
Klebsiella pneumoniae [13] = experiment: Antimicrobial activity against Klebsiella pneumoniae ATCC 35657 incubated for 24 hrs by serial dilution method; assay type: functional; conditions: ATCC 35657, 24 h
HeLa = experiment: Growth inhibition of human HeLa cells at 10 uM incubated for 48 hrs by MTT assay relative to control; assay type: functional; conditions: read-out: GI
PANC-1 = experiment: Growth inhibition of human PANC1 cells at 10 uM incubated for 48 hrs by MTT assay; assay type: functional; conditions: PANC-1, 48 h, read-out: GI
HCT-116 = experiment: Growth inhibition of human HCT116 cells at 10 uM incubated for 48 hrs by MTT assay relative to control; assay type: functional; conditions: HCT-116, 48 h, read-out: GI
Bacillus cereus = experiment: Antimicrobial activity against Bacillus cereus 709 Roma incubated for 18 to 24 hrs by microbroth dilution method; assay type: functional
Enterococcus faecalis [14] = experiment: Antimicrobial activity against Enterococcus faecalis ATCC 29212 incubated for 18 to 24 hrs by microbroth dilution method; assay type: functional
Staphylococcus aureus [15] = experiment: Antimicrobial activity against Staphylococcus aureus ATCC 25923 incubated for 18 to 24 hrs by microbroth dilution method; assay type: functional
Escherichia coli [16] = experiment: Antimicrobial activity against Escherichia coli ATCC 25922 incubated for 18 to 24 hrs by microbroth dilution method; assay type: functional
[17] = test system: Mycolicibacterium smegmatis; experiment: Antimicrobial activity against Mycobacterium smegmatis ATCC 607 incubated for 48 to 72 hrs by microbroth dilution method; assay type: functional
Pseudomonas aeruginosa [18] = experiment: Antimicrobial activity against Pseudomonas aeruginosa ATCC 43288 incubated for 18 to 24 hrs by microbroth dilution method; assay type: functional
Staphylococcus aureus [19] = experiment: Antimicrobial activity against Staphylococcus aureus ATCC 25923 by CLSI method; assay type: functional
Escherichia coli [20] = experiment: Antimicrobial activity against Escherichia coli ATCC 25922 by CLSI method; assay type: functional

CCn1cc(C(=O)O)c(=O)c2cc(F)c(-n3cc(CO[C@H]4O[C@H](COC(C)=O)[C@H](OC(C)=O)[C@H](OC(C)=O)[C@H]4OC(C)=O)nn3)c(F)c21
MIC (Staphylococcus aureus [1]): > 50 µg/mL
MIC (Staphylococcus aureus [2]): > 50 µg/mL
MIC (Klebsiella pneumoniae [3]): > 50 µg/mL
MIC (Staphylococcus aureus [4]): > 50 µg/mL
MIC (Pseudomonas aeruginosa [5]): > 50 µg/mL
MIC (Escherichia coli [6]): 12.5 µg/mL (≈ 18.4 µM)
MIC (Staphylococcus aureus [7]): > 50 µg/mL

COc1c(N2CCN(C)CC2)c(F)cc2c(=O)c(C(=O)N/N=C\c3cccc(C)c3)cn(C3CC3)c12
inhibition zone (IZ) (Aspergillus clavatus): 11 mm
MIC [8]: 42.5 µM (≈ 20.9 µg/mL)
inhibition zone (IZ) (Candida albicans): 10 mm
IC50 (PC-3): 10 µg/mL (≈ 20.3 µM)

CCCN(CCC)Cc1cn(-c2cc3c(cc2F)c(=O)c(C(=O)NO)cn3C2CC2)nn1
MIC (Staphylococcus aureus [9]): > 64 µg/mL
MIC (Staphylococcus aureus [10]): 64 µg/mL (≈ 145 µM)
MIC (Escherichia coli [11]): 64 µg/mL (≈ 145 µM)
inhibition of growth at 10 µM (A549): 20%
MIC (Moraxella catarrhalis): 64 µg/mL (≈ 145 µM)
MIC (Enterococcus faecalis [12]): 64 µg/mL (≈ 145 µM)
MIC (Klebsiella pneumoniae [13]): 32 µg/mL (≈ 72.3 µM)
inhibition of growth at 10 µM (HeLa): 15%
inhibition of growth at 10 µM (PANC-1): 15%
inhibition of growth at 10 µM (HCT-116): 10%

CCn1cc(C(=O)O)c(=O)c2cc(F)c(N3CCN(Cn4nc(CN5CCN(c6ccc([N+](=O)[O-])cc6)CC5)n(Cc5ccccc5)c4=O)CC3)cc21
MIC (Bacillus cereus): 0.24 to 0.25 µg/mL (≈ 0.331 to 0.344 µM)
MIC (Enterococcus faecalis [14]): 0.48 to 0.5 µg/mL (≈ 0.661 to 0.689 µM)
MIC (Staphylococcus aureus [15]): 0.24 to 0.25 µg/mL (≈ 0.331 to 0.344 µM)
MIC (Escherichia coli [16]): 0.25 to 0.99 µg/mL (≈ 0.344 to 1.36 µM)
MIC [17]: 0.244 to 0.99 µg/mL (≈ 0.336 to 1.36 µM)
MIC (Pseudomonas aeruginosa [18]): 0.24 to 0.5 µg/mL (≈ 0.331 to 0.689 µM)

COc1c(N2CCN(C)CC2)c(F)cc2c(=O)c(C(=O)N/N=C\c3c(Cl)cccc3Cl)cn(C3CC3)c12
MIC [8]: 27 µM (≈ 14.8 µg/mL)
inhibition zone (IZ) (Candida albicans): 9 mm
IC50 (PC-3): 4.9 µg/mL (≈ 8.97 µM)

COc1cc(/C=N\NC(=O)c2cn(C3CC3)c3c(OC)c(N4CCN(C)CC4)c(F)cc3c2=O)cc(OC)c1OC
inhibition zone (IZ) (Aspergillus clavatus): 13 mm
MIC [8]: 81.2 µM (≈ 46.1 µg/mL)
inhibition zone (IZ) (Candida albicans): 13 mm
IC50 (PC-3): 8.5 µg/mL (≈ 15 µM)

COc1c(N2CCN(C)CC2)c(F)cc2c(=O)c(C(=O)N/N=C\c3cccc(O)c3)cn(C3CC3)c12
MIC [8]: 27.2 µM (≈ 13.4 µg/mL)
IC50 (PC-3): 3.4 µg/mL (≈ 6.89 µM)

O=C(NO)c1cn(C2CC2)c2cc(-n3cc(CN4CCCCC4)nn3)c(F)cc2c1=O
MIC (Staphylococcus aureus [9]): > 64 µg/mL
MIC (Staphylococcus aureus [10]): > 64 µg/mL
MIC (Escherichia coli [11]): 64 µg/mL (≈ 150 µM)
inhibition of growth at 10 µM (A549): 10%
MIC (Moraxella catarrhalis): 64 µg/mL (≈ 150 µM)
MIC (Enterococcus faecalis [12]): > 64 µg/mL
MIC (Klebsiella pneumoniae [13]): 64 µg/mL (≈ 150 µM)
inhibition of growth at 10 µM (HeLa): 5%
inhibition of growth at 10 µM (PANC-1): 10%
inhibition of growth at 10 µM (HCT-116): 20%

CCn1cc(C(=O)O)c(=O)c2cc(F)c(-n3cc(CO[C@H]4OC[C@@H](OC(C)=O)[C@@H](OC(C)=O)[C@@H]4OC(C)=O)nn3)c(F)c21
MIC (Staphylococcus aureus [1]): 6.25 µg/mL (≈ 10.3 µM)
MIC (Staphylococcus aureus [2]): 6.25 µg/mL (≈ 10.3 µM)
MIC (Klebsiella pneumoniae [3]): 6.25 µg/mL (≈ 10.3 µM)
MIC (Staphylococcus aureus [4]): 6.25 µg/mL (≈ 10.3 µM)
MIC (Pseudomonas aeruginosa [5]): > 50 µg/mL
MIC (Escherichia coli [6]): 12.5 µg/mL (≈ 20.5 µM)
MIC (Staphylococcus aureus [7]): > 50 µg/mL

O=C(NO)c1cn(C2CC2)c2cc(-n3cc(CN4CCOCC4)nn3)c(F)cc2c1=O
MIC (Staphylococcus aureus [9]): > 64 µg/mL
MIC (Staphylococcus aureus [10]): > 64 µg/mL
MIC (Escherichia coli [11]): 8 µg/mL (≈ 18.7 µM)
inhibition of growth at 10 µM (A549): 15%
MIC (Moraxella catarrhalis): 8 µg/mL (≈ 18.7 µM)
MIC (Enterococcus faecalis [12]): > 64 µg/mL
MIC (Klebsiella pneumoniae [13]): 4 µg/mL (≈ 9.34 µM)
inhibition of growth at 10 µM (HeLa): 20%
inhibition of growth at 10 µM (PANC-1): 13%
inhibition of growth at 10 µM (HCT-116): 15%

CCn1cc(C(=O)O)c(=O)c2cc(F)c(-n3cc(CO[C@H]4OC[C@@H](OC(C)=O)[C@H](OC(C)=O)[C@H]4OC(C)=O)nn3)c(F)c21
MIC (Staphylococcus aureus [1]): 12.5 µg/mL (≈ 20.5 µM)
MIC (Staphylococcus aureus [2]): 12.5 µg/mL (≈ 20.5 µM)
MIC (Klebsiella pneumoniae [3]): 25 µg/mL (≈ 41.1 µM)
MIC (Staphylococcus aureus [4]): 12.5 µg/mL (≈ 20.5 µM)
MIC (Pseudomonas aeruginosa [5]): > 50 µg/mL
MIC (Escherichia coli [6]): 12.5 µg/mL (≈ 20.5 µM)
MIC (Staphylococcus aureus [7]): > 50 µg/mL

CC(=O)N1CCN(c2cc3c(cc2F)c(=O)c(C(=O)O)cn3C2CC2)CC1
MIC (Staphylococcus aureus [19]): 0.5 µg/mL (≈ 1.34 µM)
MIC (Escherichia coli [20]): 0.5 µg/mL (≈ 1.34 µM)

CCN1CCN(c2cc3c(cc2F)c(=O)c(C(=O)O)cn3C2CC2)CC1 [ENROFLOXACIN]
MIC (Staphylococcus aureus [19]): 2 µg/mL (≈ 5.56 µM)
MIC (Escherichia coli [20]): 0.031 µg/mL (≈ 0.0863 µM)
